Measured values: patent publication US8629093B2, “Detergent composition comprising mixture of chelants” (The Procter & Gamble Company, priority 2010, dated 2014)

Assays:
[1] = Stain removal on wine stains (MiniWasher, image analysis); settings: wash 32.2° C., 6 gpg hardness, 12 minutes
Description: (§1) The performance of the chelants were measured on wine and tea. Wine and tea stains were applied to cotton and obtained from EMC (US). Stains and ballast load consisting of 0.5 kg of T-shirt was added to a MiniWasher representing a medium US wash conditions. The wash water was set at 32.2° C.±1° C. and 6 gpg (1 mmol/L) hardness and the rinse water was set at 15.5° C.±1° C. The water volume was 15 liters and wash time 12 minutes.
(§2) The stains and the ballast were dried at the end of each cycle under high speed and high heat with cool down cycle. The results were then analyzed by image analysis which is a method that enables to calculate the amount of stain that is removed. Stains are imaged before washing and after washing. The imaging calculates the amount of stain removal index (SRI). SRI of 100 means complete removal and SRI of zero is no removal.
(§3) The Laundry Image Analysis system (Merlin image analysis system) measures stain removal on technical stain swatches. The system utilizes a video camera to acquire color images of swatches. An image of the swatch is taken before and after it is washed. The acquired image is then analyzed by computer software (Global R&D computing). The software compares the unwashed stain to the washed stain, as well as the unwashed fabric to the washed fabric and produces five figures of merit which describe stain removal. The data are then analyzed statistically to determine statistically significant differences between the detergent performances.
(§4) The stain removal index uses the initial fabric as the reference against which to measure color differences between unwashed and washed stains. A higher value indicates a better cleaning and stain removal thus a better detergent. The standard deviation is 1.

[2] = Cleaning efficacy of compact liquid detergent composition; settings: composition comprising 0.7% of Na-DTPA
[3] = Product stability on storage, assessed visually; format: physicochemical
Description: Products (I through III) were prepared by combining Composition C and the 3 different chelant combinations. The products (75 g) were stored for 4 weeks at 4° C., 20° C. and 35° C. in a Glass Jar (100 mL contenance). The product stability was then assessed visually. If there is a visual precipitate or a product phase split, the stability is considered Fail. Stability is considered Pass if there is no signs of changes during the storage period.

[4] = Stain removal on tea stains (MiniWasher, image analysis); settings: wash 32.2° C., 6 gpg hardness, 12 minutes
Description: as §1, §2, §3, §4

[5] = chelant 1 ppm, SRI 100 = complete removal, standard deviation 1

| Stability of compact liquid detergent composition ([3]; composition comprising 0.7% of Na-DTPA) | Stability of compact liquid detergent composition ([3]; quantity of Na-DTPA increased to the effective level) | Structure (SMILES) | Stain Removal Index Wine [1, 5] | Stain Removal Index Wine ([1]; chelant 2 ppm) | Stain Removal Index Wine ([1]; chelant 3 ppm) | Cleaning efficacy [2] | Stain Removal Index Tea [4, 5] | Stain Removal Index Tea ([4]; chelant 2 ppm) | Stain Removal Index Tea ([4]; chelant 3 ppm) |
| --- | --- | --- | --- | --- | --- | --- | --- | --- | --- |
| stable | does not meet the stability requirements | O=C([O-])CN(CCN(CC(=O)[O-])CC(=O)[O-])CCN(CC(=O)[O-])CC(=O)[O-].[Na+].[Na+].[Na+].[Na+].[Na+] [Na-DTPA, sodium salt of diethylene triamine pentaacetate] | 55.2 | 55.8 | 56.4 | does not provide desired cleaning efficacy | 27.6 | 29.0 | 27.1 |
| – | – | O=C([O-])CC(NCCNC(CC(=O)O)C(=O)[O-])C(=O)[O-].[Na+].[Na+].[Na+] (stereo not drawn) [Na-EDDS, sodium salt of Ethylenediamine-N,N′-disuccinic acid] | 58.3 | 59.0 | 56.8 | – | 28.2 | 29.3 | 26.1 |
